Experimental data: ChEMBL document CHEMBL1123159, “Quantitative evaluation of the beta 2-adrenoceptor intrinsic activity of N-tert-butylphenylethanolamines” (J Med Chem, 1986)

Tests used:
[1] = biological target: Beta-2 adrenergic receptor (Bos taurus) (UniProt Q28044); test: Beta-2 adrenergic receptor intrinsic symphaticomimetic activity relative to salbutamol; assay type: functional
[2] = biological target: Beta-2 adrenergic receptor (Bos taurus) (UniProt Q28044); test: Intrinsic activity was measured as concentration of beta-2 adrenergic receptor agonist required for cAMP production; assay type: functional
[3] = biological target: Beta-2 adrenergic receptor (Bos taurus, UniProt Q28044); test: Apparent binding affinity constant to beta-2 adrenergic receptor determined using [3H]DHA; details: read-out: KD app
[4] = biological target: Beta-2 adrenergic receptor (Bos taurus) (UniProt Q28044); test: Concentration required for maximal (95-100%) beta-2 adrenergic receptor occupancy
[5] = log(1/ISA) value of the compound

Beta-2 adrenergic receptor (Bos taurus), sequence (Q28044 whole entry, looked up): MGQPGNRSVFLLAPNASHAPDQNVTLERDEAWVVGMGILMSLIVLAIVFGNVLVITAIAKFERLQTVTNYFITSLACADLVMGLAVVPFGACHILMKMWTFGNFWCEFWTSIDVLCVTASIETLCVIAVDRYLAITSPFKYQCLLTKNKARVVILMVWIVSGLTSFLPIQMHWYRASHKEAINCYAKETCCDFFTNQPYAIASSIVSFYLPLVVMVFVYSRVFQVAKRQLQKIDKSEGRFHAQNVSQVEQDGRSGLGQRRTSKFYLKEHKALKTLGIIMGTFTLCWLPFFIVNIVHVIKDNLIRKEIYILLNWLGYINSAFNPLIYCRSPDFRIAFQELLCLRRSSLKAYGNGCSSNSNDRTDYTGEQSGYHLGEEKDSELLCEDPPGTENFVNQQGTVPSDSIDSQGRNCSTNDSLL
Beta-2 adrenergic receptor, sequence (Q28044 whole entry): as the sequence (Q28044 whole entry, looked up) above

Row | Compound | ISA [1] | cAMP production (pM min-1 mg-1) [2] | Kd [3] | Concentration [4] | Log 1/ISA [5]
1 | CC(C)(C)NCC(O)c1cc(O)cc(O)c1 (stereo not given) | 0.41 | 50 | – | – | –
2 | CNc1cc(C(O)CNC(C)(C)C)ccc1O (stereo not given) | 0.95 | 115 | 0.56 µM | 30 µM | 0.02
3 | CC(C)(C)NCC(O)c1ccc(O)c(O)c1 (stereo not given) [COLTEROL] | 0.68 | 83 | 0.67 µM | – | 0.17
4 | CC(C)(C)NCC(O)c1ccccc1Cl (stereo not given) [TULOBUTEROL] | 0.5 | 61 | – | 10 µM | 0.3
5 | CC(C)(C)NCC(O)c1ccc(O)c(CO)c1 (stereo not given) | 1 | 122 | – | 30 µM | –
6 | CC(C)(C)NCC(O)c1ccc(O)c(C(N)=O)c1 (stereo not given) | 0.2 | 24 | 1.03 µM | 30 µM | 0.7
7 | CC(C)(C)NCC(O)c1ccc(O)c(N)c1 (stereo not given) | 0.68 | 83 | 2.17 µM | – | 0.17
8 | CC(C)(C)NCC(O)c1ccccc1 (stereo not given) | 0.35 | 43 | 2.94 µM | 100 µM | 0.46
9 | CC(C)(C)NCC(O)c1ccc(O)cc1 (stereo not given) | 0.8 | 97 | 1.35 µM | 100 µM | 0.1
10 | CC(C)(C)NCC(O)c1cc(Cl)c(O)c(Cl)c1 (stereo not given) | 0.39 | 47 | 6.47 µM | 300 µM | 0.41
11 | CC(C)(C)NCC(O)c1cc(Cl)c(N)c(Cl)c1 (stereo not given) | 0.53 | 64 | – | 1 µM | –
